Each structure is given as a SMILES string. Square brackets hold non-standard residues; d marks the D form. Peptide text beside a SMILES is read from it. * marks the point of attachment. ξ: configuration not given here. Palmitoyl = CCCCCCCCCCCCCCCC(=O)*; ξF = NC(Cc1ccccc1)C(=O)O

The record followed here is patent US9096646B2, “CXCR4 receptor compounds” (priority 2008, dated 2015).

Holding throughout (format): cell-based
Test [1] concerns the target T1, CXCR4 (Homo sapiens, UniProt P61073). As to the kind of experiment: Calcium flux assay in CCRF-CEM cells (SDF-1α activation of CXCR4; intrinsic agonist activity). Also on record: a human T-cell ALL line that endogenously expresses CXCR4; endogenous in cells; host or cells: CCRF-CEM (human T-cell ALL line). The note with it: SDF-1α activation of CXCR4, Calcium-4 dye, read-out: IC50 (nM), CXCR4 i1 loop compound Calcium Flux Data. An excerpt: Calcium Flux Assay is one of the most popular cell-based GPCR functional assays. It most often uses calcium sensing fluorescent dyes such as fura2 AM, fluo-4 and Calcium-4 to measure changes in intracellular calcium concentration. It is used mainly to detect GPCR signaling via Gaq subunit. Activation of these Gq-coupled GPCRs leads to activation of phospholipase C, which subsequently leads to increase in inositol phosphate production. IP3 receptors on endoplasmic reticulum sense the change then release calcium into cytoplasm. Intracellular calcium binding to the fluorescent dyes can be detected by instruments that quantify fluorescent intensities, such as FLIPR Tetra, Flexstation (MDS) and FDSS (Hamamatsu). In additional to assess Gq-couple receptor signaling, calcium flux assay can also be used to study Gs and Gi couple receptors by co-expressing CNG (cyclic nucleotide gated calcium channel) or chimeric G-proteins (Gqi5, Gsi5 for example). Activation of some Gi-coupled receptors can also be detected by calcium flux assay via Gβγmediated phospholipase C activation.
The calcium flux assay was used to assess SDF-1α activation of CXCR4 in CCRF-CEM cells (human T lymphoblasts from acute lymphoblastic leukemia). CCRF-CEM cells were seeded into 96-well black plates with clear bottom at 200K/well in RPMI 1640 media with 20 mM HEPES containing 0.2% BSA. After dye loading by incubating with Calcium-4 dye at 37° C. for 1 hour, cell plates were read at 37° C. using the Flexstation 3 workstation. The addition of test compounds or reference antagonists was accomplished either by manual pipetting or by liquid handling using the Flexstation. The latter allows the assessment of intrinsic agonist activity of the test compounds by measuring initial changes in fluorescent intensity. After incubation of 24 minutes at 37° C., SDF-1α was added and receptor activation was assessed by measuring changes in fluorescent intensity using the Flexstation.

The target of test [2] is T1, CXCR4. As to the kind of experiment: Chemotaxis assay using SUP B-15 cells. Also on record: A similar procedure was followed for chemotaxis using SUP B-15 cells; endogenous in cells; host or cells: SUP B-15 cells. As to conditions: SUP-B15, Table 18, i1 loop, SUP B-15 cells, drug conc 1.0 uM. From the text:
Chemotaxis assays were utilized to determine the effect of compound on the directed migration of cells in response to chemokine. Cells that express a receptor of interest were placed in the upper chamber of a Transwell chemotaxis plate (Corning) and allowed to migrate through a polycarbonate membrane to a lower chamber containing the appropriate receptor-specific ligand. To test for antagonist or potentiating activity, cells were mixed with the desired concentration of compound prior to addition to the upper chamber. Conversely, agonist activity was determined by adding compound in the bottom chamber only without endogenous chemokine. The effect of compound is quantified by several parameters, including the extent of maximum response, the shift of agonist dose-response curves, and the area under the curve.
To measure the CXCR4-dependent migration of cells, the appropriate concentration of CXCL12 (SDF1a) or test compound was diluted in phenol red-free RMPI-1640/20 mM HEPES/0.5% BSA buffer and placed in the bottom chamber of a transwell apparatus. CCRF-CEM cells, a human T-cell ALL line that endogenously expresses CXCR4, were washed twice in buffer and resuspended at 133,000 cells/ml. A 75 μl sample of this suspension is mixed with the test compound of interest and placed in the upper chamber of a 5-micron transwell apparatus.
To initiate cell migration, the assembled transwell plate was placed in a 37° C., […] incubator for a specified time interval, typically between 30 and 120 minutes. After incubation, the unit was disassembled and the lower chamber placed at −80° C. overnight to facilitate lysis of cells. To quantify migrated cells, plates were thawed at 37° C. in a humidified chamber, and then a sample volume was removed from each well and mixed with an equal volume of CyQuant (Invitrogen) working solution in opaque plates. The fluorescence intensity of each well represents the DNA content and is directly proportional to cell number. Each sample was typically run in duplicate or triplicate and each plate included two separate negative controls. The plate background control, which included no cells in the upper chamber, was subtracted from all values. The negative control had no agonist added in the lower chamber, and served to establish the baseline for random migration. A similar procedure was followed for chemotaxis using SUP B-15 cells.

In test [3] the target is T1, CXCR4. As to the kind of experiment: Chemotaxis assay, effect on SDF1-a (CXCL12) induced migration of CCRF-CEM cells. Further details: a human T-cell ALL line that endogenously expresses CXCR4; endogenous in cells; host or cells: CCRF-CEM (human T-cell ALL line). As to conditions: CCRF-CEM, Table 18, i1 loop, CEM cells, drug conc 1.0 uM.

T1 sequence (P61073 whole entry): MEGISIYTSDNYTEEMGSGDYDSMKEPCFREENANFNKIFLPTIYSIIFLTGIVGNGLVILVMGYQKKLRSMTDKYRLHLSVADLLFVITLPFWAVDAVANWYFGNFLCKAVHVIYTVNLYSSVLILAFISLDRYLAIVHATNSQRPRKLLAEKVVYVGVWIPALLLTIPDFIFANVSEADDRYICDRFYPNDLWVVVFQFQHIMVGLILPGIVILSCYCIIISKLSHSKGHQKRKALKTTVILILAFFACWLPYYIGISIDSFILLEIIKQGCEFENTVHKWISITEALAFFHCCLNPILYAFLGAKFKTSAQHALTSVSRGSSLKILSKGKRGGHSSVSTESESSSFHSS

Take `CCCCCCCCCCCCCCCC(=O)N[C@@H](CCSC)C(=O)NCC(=O)N[C@@H](Cc1ccc(O)cc1)C(=O)N[C@@H](CCC(N)=O)C(=O)N[C@H](CCCCN)C(=O)N[C@@H](CCCCN)C(=O)N[C@@H](CC(C)C)C(=O)N[C@@H](CCCNC(=N)N)C(=O)N[C@@H](CO)C(=O)N[C@@H](CCSC)C(=O)N[C@H](C(=O)N[C@@H](CC(=O)O)C(=O)N[C@@H](CCCCN)C(=O)N[C@@H](Cc1ccc(O)cc1)C(=O)N[C@@H](C)C(=O)N[C@@H](CC(C)C)C(N)=O)[C@@H](C)O` [Compound 152] (Palmitoyl-MGYQ[dK]KLRSMTDKYAL-NH2): at CXCR4 [1], the IC50 is above 10000 nM.

For the compound `CCCCCCCCCCCCCCCC(=O)N[C@@H](CCSC)C(=O)NCC(=O)N[C@@H](Cc1ccc(O)cc1)C(=O)N[C@@H](CCC(N)=O)C(=O)N[C@@H](CCCCN)C(=O)N[C@@H](CCCCN)C(=O)N[C@@H](CC(C)C)C(=O)N[C@@H](CCCNC(=N)N)C(=O)N[C@@H](CO)C(=O)N[C@@H](CCSC)C(=O)N[C@H](C(=O)N[C@@H](CC(=O)O)C(=O)N[C@@H](CCCCN)C(=O)N[C@@H](Cc1ccc(O)cc1)C(=O)N[C@@H](CCCNC(=N)N)C(=O)N[C@H](CC(C)C)C(N)=O)[C@@H](C)O` [Compound 159] (Palmitoyl-MGYQKKLRSMTDKYR[dL]-NH2), the half-inhibitory concentration (IC50) on CXCR4 [1] is above 10000 nM.

As for `CCCCCCCCCCCCCCCC(=O)N[C@@H](CCSC)C(=O)NCC(=O)N[C@@H](Cc1ccc(O)cc1)C(=O)N[C@@H](CCC(N)=O)C(=O)N[C@@H](CCCCN)C(=O)N[C@@H](CCCCN)C(=O)N[C@@H](CC(C)C)C(=O)N[C@@H](CCCNC(=N)N)C(=O)N[C@@H](CO)C(=O)N[C@@H](CCSC)C(=O)N[C@H](C(=O)N[C@@H](CC(=O)O)C(=O)N[C@@H](CCCCN)C(=O)N[C@H](Cc1ccc(O)cc1)C(=O)N[C@@H](CCCNC(=N)N)C(=O)N[C@@H](CC(C)C)C(N)=O)[C@@H](C)O` [Compound 161] (Palmitoyl-MGYQKKLRSMTDK[dY]RL-NH2), on CXCR4 [1], the IC50 was above 10000 nM.

In the case of `CCCCCCCCCCCCCCCC(=O)N[C@@H](CCSC)C(=O)NCC(=O)N[C@@H](Cc1ccc(O)cc1)C(=O)N[C@@H](CCC(N)=O)C(=O)N[C@@H](CCCCN)C(=O)N[C@@H](CCCCN)C(=O)N[C@@H](CC(C)C)C(=O)N[C@@H](CCCNC(=N)N)C(=O)N[C@@H](CO)C(=O)N[C@@H](CCSC)C(=O)N[C@H](C(=O)N[C@@H](CC(=O)O)C(=O)N[C@@H](CCCCN)C(=O)N[C@@H](Cc1ccc(O)cc1)C(N)=O)[C@@H](C)O` [Compound 37] (Palmitoyl-MGYQKKLRSMTDKY-NH2), the activity at 1 µM at CXCR4 [2] (read-out: AUC (% of)) came out at 63.5%; on CXCR4 [2] (read-out: Max (% of)), 91.1%; at CXCR4 [3] (read-out: AUC (% of)), 92.3%; at CXCR4 [3] (read-out: Max (% of)), 97.8%.

For the compound `CCCCCCCCCCCCCCCC(=O)N[C@@H](CCSC)C(=O)NCC(=O)N[C@@H](Cc1ccc(O)cc1)C(=O)N[C@@H](CCC(N)=O)C(=O)N[C@@H](CCCCN)C(=O)N[C@@H](CCCCN)C(=O)N[C@H](CC(C)C)C(=O)N[C@@H](CCCNC(=N)N)C(=O)N[C@@H](CO)C(=O)N[C@@H](CCSC)C(=O)N[C@H](C(=O)N[C@@H](CC(=O)O)C(=O)N[C@@H](CCCCN)C(=O)N[C@@H](Cc1ccc(O)cc1)C(=O)N[C@@H](CCCNC(=N)N)C(=O)N[C@@H](CC(C)C)C(N)=O)[C@@H](C)O` [Compound 170] (Palmitoyl-MGYQKK[dL]RSMTDKYRL-NH2), the 50% inhibitory concentration (IC50) on CXCR4 [1] amounted to 72 nM.

`CCCCCCCCCCCCCCCC(=O)N[C@@H](CCCCN)C(=O)N[C@@H](CCCCN)C(=O)N[C@@H](CC(C)C)C(=O)N[C@@H](CCCNC(=N)N)C(=O)N[C@@H](CO)C(=O)N[C@@H](CCSC)C(=O)N[C@H](C(=O)N[C@@H](CC(=O)O)C(=O)N[C@@H](CCCCN)C(=O)N[C@@H](Cc1ccc(O)cc1)C(=O)N[C@@H](CCCNC(=N)N)C(=O)N[C@@H](CC(C)C)C(=O)N[C@@H](Cc1cnc[nH]1)C(=O)N[C@@H](CC(C)C)C(=O)N[C@@H](CO)C(=O)N[C@H](C(N)=O)C(C)C)[C@@H](C)O` [Compound 41] (Palmitoyl-KKLRSMTDKYRLHLSV-NH2): the activity at 1 µM on CXCR4 [2] (read-out: AUC (% of)) was determined as 51.7%; on CXCR4 [2] (read-out: Max (% of)), 41.7%; at CXCR4 [3] (read-out: AUC (% of)), 66.7%; at CXCR4 [3] (read-out: Max (% of)), 76.8%.

As to `CCCCCCCCCCCCCCCC(=O)N[C@@H](CCSC)C(=O)NCC(=O)N[C@@H](Cc1ccc(O)cc1)C(=O)N[C@@H](CCC(N)=O)C(=O)N[C@@H](CCCCN)C(=O)N[C@@H](CCCCN)C(=O)N[C@@H](CC(C)C)C(=O)N[C@H](CCCNC(=N)N)C(=O)N[C@@H](CO)C(=O)N[C@@H](CCSC)C(=O)N[C@H](C(=O)N[C@@H](CC(=O)O)C(=O)N[C@@H](CCCCN)C(=O)N[C@@H](Cc1ccc(O)cc1)C(=O)N[C@@H](CCCNC(=N)N)C(=O)N[C@@H](CC(C)C)C(N)=O)[C@@H](C)O` [Compound 171] (Palmitoyl-MGYQKKL[dR]SMTDKYRL-NH2), the IC50 at CXCR4 [1] was determined as 72 nM.

Consider `CCCCCCCCCCCCCCCC(=O)N[C@@H](CCSC)C(=O)NCC(=O)N[C@@H](Cc1ccc(O)cc1)C(=O)N[C@@H](CCC(N)=O)C(=O)N[C@H](CCCCN)C(=O)N[C@@H](CCCCN)C(=O)N[C@@H](CC(C)C)C(=O)N[C@@H](CCCNC(=N)N)C(=O)N[C@@H](CO)C(=O)N[C@@H](CCSC)C(=O)N[C@H](C(=O)N[C@@H](CC(=O)O)C(=O)N[C@@H](CCCCN)C(=O)NC(Cc1ccccc1)C(=O)N[C@@H](CCCNC(=N)N)C(=O)N[C@@H](C)C(N)=O)[C@@H](C)O` (stereo partly shown) [Compound 153] (Palmitoyl-MGYQ[dK]KLRSMTDK[ξF]RA-NH2), for which the IC50 on CXCR4 [1] was above 10000 nM.

As for `CCCCCCCCCCCCCCCC(=O)N[C@@H](CCCCN)C(=O)N[C@@H](CCCCN)C(=O)N[C@@H](CC(C)C)C(=O)N[C@@H](CCCNC(=N)N)C(=O)N[C@@H](CO)C(=O)N[C@@H](CCSC)C(=O)N[C@H](C(=O)N[C@@H](CC(=O)O)C(=O)N[C@@H](CCCCN)C(=O)N[C@@H](Cc1ccc(O)cc1)C(N)=O)[C@@H](C)O` [Compound 46] (Palmitoyl-KKLRSMTDKY-NH2), the activity at 1 µM at CXCR4 [2] (read-out: AUC (% of)) was found to be 87.2%; on CXCR4 [2] (read-out: Max (% of)), 82.9%; at CXCR4 [3] (read-out: AUC (% of)) it was 69.7%; at CXCR4 [3] (read-out: Max (% of)), 116%.

For the compound `CCCCCCCCCCCCCCCC(=O)N[C@@H](CCSC)C(=O)NCC(=O)N[C@@H](Cc1ccc(O)cc1)C(=O)N[C@@H](CCC(N)=O)C(=O)N[C@H](CCCCN)C(=O)N[C@@H](CCCCN)C(=O)N[C@@H](CC(C)C)C(=O)N[C@@H](CCCNC(=N)N)C(=O)N[C@@H](CO)C(=O)N[C@@H](CCSC)C(=O)N[C@H](C(=O)N[C@@H](CC(=O)O)C(=O)N[C@@H](CCCCN)C(=O)N[C@@H](C)C(=O)N[C@@H](CCCNC(=N)N)C(=O)N[C@@H](CC(C)C)C(N)=O)[C@@H](C)O` [Compound 151] (Palmitoyl-MGYQ[dK]KLRSMTDKARL-NH2), the concentration for half-maximal inhibition (IC50) at CXCR4 [1] was above 10000 nM.
